Measured values from patent US20230295201A1 (Gilead Sciences, Inc., priority 2020, published 2023).
Where two headings read alike, the source gives them in different places.

Legend:
Type in all cases: cell-based
[1] = tested on: RSV A2; assay: RSV NHBE EC50 (RSV A2 antiviral assay in normal human bronchial epithelial cells); conditions: NHBE cells, RSV A2, 4 days, read-out: RSV NHBE EC50
[2] = tested on: DENV2 replicon; assay: DENV-2 Huh-7 Rep EC50 (replicon luminescence); conditions: read-out: DENV-2 Huh-7 Rep EC50
Outline: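 Huh-7 cells carrying a DENV2 replicon, 5,000 cells/well, were incubated with dosed compounds for 48 h at 37° C. EnduRen live-cell substrate was added 1.5 h before luminescence reading. EC50 came from dose-response against DMSO-only wells.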

[3] = tested on: RSV strain A2; assay: RSV HEp-2 EC50 (infectious cytopathic cell protection assay); conditions: HEp-2 cells, RSV A2, 4 days, read-out: RSV HEp-2 EC50
Outline: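 HEp-2 cells mixed with titered RSV A2 at 50,000 cells/ml were added to plates holding 3-fold serial compound dilutions in DMSO, then incubated 4 days at 37° C. Cytoprotection was read as cell viability by CellTiter-Glo luminescence and converted to percent inhibition against 0% and 100% inhibition controls.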

[4] = tested on: HRV16; assay: HRV16 HELA EC50 (cytopathic effect in H1-HeLa cells)
Outline: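 H1-HeLa cells seeded one day before, given 3-fold serial compound dilutions in triplicate just prior to infection with pre-titrated virus. Incubated 96 h at 33 °C/5% CO2; protection from cytopathic effect read as viability by CellTiter-Glo luminescence, normalised to infected untreated (0%) and uninfected (100%) controls.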

[5] = human respiratory syncytial virus, 96 h
[6] = Dengue virus, DENV2, Huh-7, 48 h
[7] = H1-HeLa cells, 96 h, 33° C.; read-out: HRV16 HELA EC50
[8] = human respiratory syncytial virus, NHBE, 96 h
[9] = Dengue virus, DENV2, Huh-7, 48 h, Huh-7 replicon cells, 48 hours
[10] = human respiratory syncytial virus, HEp-2, 96 h
[11] = 96 h, H1-HeLa cells, 33° C., read-out: HRV16 HELA EC50

For CCCCCCCCCCCCCCCCOCCCOP(=O)(O)OC[C@@]1(C#N)O[C@@H](c2ccc3c(N)ncnn23)[C@H](O)[C@@H]1O [Example 149, ((2R,3S,4R,5S)-5-(4-aminopyrrolo[2,1-f][1,2,4]triazin-7-yl)-2-cyano-3,4-dihydroxytetrahydrofuran-2-yl)methyl (3-(hexadecyloxy)propyl) hydrogen phosphate], which EC50 [1, 5] is on record?
The EC50 was over 0.891 µM.

And the EC50 [2, 6]?
The EC50 was over 50 µM.

And the EC50 [3, 5]?
The EC50 was 0.925 µM.

And the EC50 [4, 7]?
Its EC50 is over 50 µM.

How did the EC50 [1, 5] turn out when CCCCCCCCCCCCCCCCCCOC[C@H](COP(=O)(O)OC[C@@]1(C#N)O[C@@H](c2ccc3c(N)ncnn23)[C@H](O)[C@@H]1O)OCc1ccccc1 [Example 96, ((2R,3S,4R,5S)-5-(4-aminopyrrolo[2,1-f][1,2,4]triazin-7-yl)-2-cyano-3,4-dihydroxytetrahydrofuran-2-yl)methyl ((R)-2-(benzyloxy)-3-(octadecyloxy)propyl) hydrogen phosphate] was run?
The EC50 was 0.441 µM.

And the EC50 [2, 6]?
Its EC50 is over 100 µM.

What about the EC50 [3, 5] of the same compound?
The EC50 was 0.254 µM.

What about the EC50 [4, 7] of the same compound?
The EC50 was 9.35 µM.

Which EC50 [1, 8] does the source give for CCCCCCCCCCCC(=O)OCCNP(=O)(OC[C@@]1(C#N)O[C@@H](c2ccc3c(N)ncnn23)[C@H](O)[C@@H]1O)Oc1ccccc1 (mixture of isomers) [Example 181, 2-(((((2R,3S,4R,5S)-5-(4-aminopyrrolo[2,1-f][1,2,4]triazin-7-yl)-2-cyano-3,4-dihydroxytetrahydrofuran-2-yl)methoxy)(phenoxy)phosphoryl)amino)ethyl dodecanoate] here?
The EC50 was 0.043 µM.

And the EC50 [2, 9]?
Its EC50 is 5.25 µM.

What about the EC50 [3, 10] of the same compound?
Its EC50 is 0.008 µM.

And the EC50 [4, 11]?
The EC50 was 0.035 µM.

Which results are given for C[C@H](N[P@](=O)(OC[C@@]1(C#N)O[C@@H](c2ccc3c(N)ncnn23)[C@H](O)[C@@H]1O)Oc1ccccc1)C(=O)OCC(C)(C)C [Example 94]?
EC50 [1]: 0.118 µM; EC50 ([2]; Huh-7 replicon cells, 48 hours): 2.34 µM; EC50 [3]: 0.1 µM; EC50 [4, 7]: 0.209 µM

C[C@H](NP(=O)(OC[C@@]1(C#N)O[C@@H](c2ccc3c(N)ncnn23)[C@H](O)[C@@H]1O)Oc1ccccc1)C(=O)OCC1CCCCC1 (single isomer, unassigned) [Example 247] was tested. Which EC50 [1] did it give?
Its EC50 is 0.51 µM.

And the EC50 ([2]; Huh-7 replicon cells, 48 hours)?
The EC50 was 12 µM.

What about the EC50 [3, 10] of the same compound?
Its EC50 is 0.044 µM.

And the EC50 [4, 11]?
Its EC50 is 0.317 µM.

How did the EC50 [1, 8] turn out when CCC(CC)COC(=O)[C@H](C)N[P@](=O)(OC[C@@]1(C#N)O[C@@H](c2ccc3c(N)ncnn23)[C@H](O)[C@@H]1O)Oc1ccccc1 (single isomer, unassigned) [Example 25] was run?
The EC50 was 0.127 µM.

What about the EC50 [2, 9] of the same compound?
The EC50 was 2.86 µM.

And the EC50 [3, 10]?
Its EC50 is 0.026 µM.

What about the EC50 [4, 11] of the same compound?
Its EC50 is 0.135 µM.

Which EC50 [1, 8] does the source give for CCCCCCOC(=O)[C@H](C)NP(=O)(OC[C@@]1(C#N)O[C@@H](c2ccc3c(N)ncnn23)[C@H](O)[C@@H]1O)Oc1ccccc1 (stereo partly drawn) [Example 192, hexyl ((((2R,3S,4R,5S)-5-(4-aminopyrrolo[2,1-f][1,2,4]triazin-7-yl)-2-cyano-3,4-dihydroxytetrahydrofuran-2-yl)methoxy)(phenoxy)phosphoryl)-L-alaninate] here?
The EC50 was 0.021 µM.

And the EC50 [2, 9]?
The EC50 was 15.9 µM.

What about the EC50 [3, 10] of the same compound?
Its EC50 is 0.194 µM.

And the EC50 [4, 11]?
The EC50 was 0.342 µM.

For C[C@H](N[P@](=O)(OC[C@@]1(C#N)O[C@@H](c2ccc3c(N)ncnn23)[C@H](O)[C@@H]1O)Oc1ccccc1)C(=O)O[C@H]1CC[C@H](C(C)(C)C)CC1 (single isomer, unassigned) [Example 22], which EC50 [1, 8] is on record?
Its EC50 is 0.036 µM.

What about the EC50 [2, 9] of the same compound?
The EC50 was 5.75 µM.

And the EC50 [3, 10]?
Its EC50 is 0.103 µM.

And the EC50 [4, 11]?
Its EC50 is 0.2 µM.

What does the source list for CC(C)OC(=O)[C@H](C)NP(=O)(OC[C@@]1(C#N)O[C@@H](c2ccc3c(N)ncnn23)[C@H](O)[C@@H]1O)Oc1ccccc1 (mixture of isomers) [Example 77, Isopropyl ((((2R,3S,4R,5S)-5-(4-aminopyrrolo[2,1-f][1,2,4]triazin-7-yl)-2-cyano-3,4-dihydroxytetrahydrofuran-2-yl)methoxy)(phenoxy)phosphoryl)-L-alaninate]?
EC50 [1, 8]: 1.15 µM; EC50 [2, 9]: 49.8 µM; EC50 [3, 10]: 0.464 µM; EC50 [4, 11]: 1.42 µM

With CCC(CC)COC(=O)[C@H](CC)NP(=O)(OC[C@@]1(C#N)O[C@@H](c2ccc3c(N)ncnn23)[C@H](O)[C@@H]1O)Oc1ccccc1 (mixture of isomers) [Example 88, (2S)-2-ethylbutyl 2-(((((2R,3S,4R,5S)-5-(4-aminopyrrolo[2,1-f][1,2,4]triazin-7-yl)-2-cyano-3,4-dihydroxytetrahydrofuran-2-yl)methoxy)(phenoxy)phosphoryl)amino)butanoate] as the compound, how does the EC50 [1, 8] read?
The EC50 was 0.036 µM.

And the EC50 [2, 9]?
The EC50 was 62 µM.

And the EC50 [3, 10]?
The EC50 was 0.336 µM.

What about the EC50 [4, 11] of the same compound?
The EC50 was 1.06 µM.

How did the EC50 [1, 8] turn out when C[C@H](N[P@](=O)(OC[C@@]1(C#N)O[C@@H](c2ccc3c(N)ncnn23)[C@H](O)[C@@H]1O)Oc1ccccc1)C(=O)OC1CCCCC1 (single isomer, unassigned) [Example 6] was run?
The EC50 was 0.124 µM.

And the EC50 [2, 9]?
Its EC50 is 2.94 µM.

And the EC50 [3, 10]?
Its EC50 is 0.088 µM.

And the EC50 [4, 11]?
The EC50 was 0.227 µM.

CCC(CC)COC(=O)[C@@H](C)NP(=O)(OC[C@@]1(C#N)O[C@@H](c2ccc3c(N)ncnn23)[C@H](O)[C@@H]1O)Oc1ccccc1 (stereo partly drawn) [Example 82, (2R)-2-ethylbutyl 2-(((((2R,3S,4R,5S)-5-(4-aminopyrrolo[2,1-f][1,2,4]triazin-7-yl)-2-cyano-3,4-dihydroxytetrahydrofuran-2-yl)methoxy)(phenoxy)phosphoryl)amino)propanoate] was tested. Which EC50 [1, 8] did it give?
The EC50 was 3 µM.

What about the EC50 [2, 9] of the same compound?
The EC50 was over 50 µM.

What about the EC50 [3, 10] of the same compound?
The EC50 was 2.51 µM.

What about the EC50 [4, 11] of the same compound?
Its EC50 is 9.27 µM.

What does the source list for CCOC(=O)[C@H](C)N[P@](=O)(OC[C@@]1(C#N)O[C@@H](c2ccc3c(N)ncnn23)[C@H](O)[C@@H]1O)Oc1ccccc1 [Example 29, Ethyl ((S)-(((2R,3S,4R,5S)-5-(4-aminopyrrolo[2,1-f][1,2,4]triazin-7-yl)-2-cyano-3,4-dihydroxytetrahydrofuran-2-yl)methoxy)(phenoxy)phosphoryl)-L-alaninate]?
EC50 [1, 8]: 0.932 µM; EC50 [2, 9]: 36.1 µM; EC50 [3, 10]: 0.091 µM; EC50 [4, 11]: 0.678 µM

What does the source list for C[C@H](NP(=O)(OC[C@@]1(C#N)O[C@@H](c2ccc3c(N)ncnn23)[C@H](O)[C@@H]1O)Oc1cccc2ccccc12)C(=O)OC1CCCCC1 (stereo partly drawn) [Example 203, cyclohexyl ((((2R,3S,4R,5S)-5-(4-aminopyrrolo[2,1-f][1,2,4]triazin-7-yl)-2-cyano-3,4-dihydroxytetrahydrofuran-2-yl)methoxy)(naphthalen-1-yloxy)phosphoryl)-L-alaninate]?
EC50 [1, 8]: 0.018 µM; EC50 [2, 9]: 4.46 µM; EC50 [3, 10]: 0.031 µM; EC50 [4, 11]: 0.072 µM

Which EC50 [1, 8] does the source give for CC[C@H](NP(=O)(OC[C@@]1(C#N)O[C@@H](c2ccc3c(N)ncnn23)[C@H](O)[C@@H]1O)Oc1ccccc1)C(=O)OC1CCCCC1 (mixture of isomers) [Example 103, (2S)-cyclohexyl 2-(((((2R,3S,4R,5S)-5-(4-aminopyrrolo[2,1-f][1,2,4]triazin-7-yl)-2-cyano-3,4-dihydroxytetrahydrofuran-2-yl)methoxy)(phenoxy)phosphoryl)amino)butanoate] here?
The EC50 was 0.548 µM.

What about the EC50 [2, 9] of the same compound?
Its EC50 is over 50 µM.

What about the EC50 [3, 10] of the same compound?
Its EC50 is 0.938 µM.

And the EC50 [4, 11]?
Its EC50 is 2.44 µM.

How did the EC50 [1, 8] turn out when COC(=O)[C@H](C)N[P@](=O)(OC[C@@]1(C#N)O[C@@H](c2ccc3c(N)ncnn23)[C@H](O)[C@@H]1O)Oc1ccccc1 [Example 52, methyl ((S)-(((2R,3S,4R,5S)-5-(4-aminopyrrolo[2,1-f][1,2,4]triazin-7-yl)-2-cyano-3,4-dihydroxytetrahydrofuran-2-yl)methoxy)(phenoxy)phosphoryl)-L-alaninate] was run?
The EC50 was 0.252 µM.

And the EC50 [2, 9]?
The EC50 was over 47 µM.

And the EC50 [3, 10]?
The EC50 was 0.094 µM.

What about the EC50 [4, 11] of the same compound?
Its EC50 is 1.25 µM.

C[C@H](NP(=O)(OC[C@@]1(C#N)O[C@@H](c2ccc3c(N)ncnn23)[C@H](O)[C@@H]1O)Oc1ccccc1)C(=O)OCC1CC1 (mixture of isomers) [Example 8, (2S)-cyclopropylmethyl 2-(((((2R,3S,4R,5S)-5-(4-aminopyrrolo[2,1-f][1,2,4]triazin-7-yl)-2-cyano-3,4-dihydroxytetrahydrofuran-2-yl)methoxy)(phenoxy)phosphoryl)amino)propanoate] was tested. Which EC50 [1, 8] did it give?
The EC50 was 0.351 µM.

What about the EC50 [2, 9] of the same compound?
The EC50 was 37.3 µM.

And the EC50 [3, 10]?
The EC50 was 0.182 µM.

What about the EC50 [4, 11] of the same compound?
The EC50 was 0.472 µM.
